Data as given in patent US12655116B2, “Substituted isophthalic acid diamides” (Bayer Aktiengesellschaft, priority 2020, dated 2026).

Legend:
SETVI [1] = test: Pre-emergence herbicidal action against SETVI; type: in vivo, Setaria viridis; settings: Setaria viridis, 504 h
Procedure, shortened: (§1)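 Greenhouse pots of sandy loam held seeds covered with soil, onto which the compound was applied before emergence. An aqueous suspension or emulsion of WP or EC was used at 600 to 800 l/ha with 0.2% wetting agent. Percent damage was judged visually at 3 weeks.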

LOLRI [2] = test: Post-emergence herbicidal action against LOLRI; type: in vivo, Lolium rigidum; settings: Lolium rigidum, 504 h
Procedure, shortened: (§2)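 Foliar application at one-leaf stage of formulated test compounds, aqueous spray at 600–800 l/ha with 0.2% wetting agent. Greenhouse, optimal conditions, ~3 weeks; damage scored visually in % relative to untreated plants.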

VIOTR [3] = test: Post-emergence herbicidal action against VIOTR; type: in vivo, Viola tricolor; settings: Viola tricolor, 504 h
Procedure, shortened: as §2

MATIN = test: Post-emergence herbicidal action against MATIN; type: in vivo, Matricaria inodora; settings: Tripleurospermum inodorum, 504 h
Procedure, shortened: as §2

POLCO = test: Pre-emergence herbicidal action against POLCO; type: in vivo, Polygonum convolvulus; settings: Fallopia convolvulus, 504 h
Procedure, shortened: as §1

ABUTH [4] = test: Pre-emergence herbicidal action against ABUTH; type: in vivo, Abutilon theophrasti; settings: Abutilon theophrasti, 504 h
Procedure, shortened: as §1

ALOMY [5] = test: Pre-emergence herbicidal action against ALOMY; type: in vivo, Alopecurus myosuroides; settings: Alopecurus myosuroides, 504 h, pre-emergence
Procedure, shortened: as §1

AMARE [6] = test: Post-emergence herbicidal action against AMARE; type: in vivo, Amaranthus retroflexus; settings: Amaranthus retroflexus, 504 h, visual assessment about 3 weeks after treatment, 100% = plants have died, 0% = like control plants
Procedure, shortened: as §2

PHBPU = test: Post-emergence herbicidal action against PHBPU; type: in vivo, Pharbitis purpurea; settings: Ipomoea purpurea, 504 h
Procedure, shortened: as §2

ABUTH [7] = test: Post-emergence herbicidal action against ABUTH; type: in vivo, Abutilon theophrasti; settings: Abutilon theophrasti, 504 h, visual assessment about 3 weeks after treatment vs untreated controls
Procedure, shortened: as §2

LOLRI [8] = test: Pre-emergence herbicidal action against LOLRI; type: in vivo, Lolium rigidum; settings: Lolium rigidum, 504 h
Procedure, shortened: as §1

STEME [9] = test: Pre-emergence herbicidal action against STEME; type: in vivo, Stellaria media; settings: Stellaria media, 504 h
Procedure, shortened: as §1

ALOMY [10] = test: Post-emergence herbicidal action against ALOMY; type: in vivo, Alopecurus myosuroides; settings: Alopecurus myosuroides, 504 h, visual assessment about 3 weeks after treatment vs untreated controls
Procedure, shortened: as §2

SETVI [11] = test: Post-emergence herbicidal action against SETVI; type: in vivo, Setaria viridis; settings: Setaria viridis, 504 h
Procedure, shortened: as §2

ECHCG = test: Pre-emergence herbicidal action against ECHCG; type: in vivo, Echinochloa crus-galli; settings: Echinochloa crus-galli, 504 h
Procedure, shortened: as §1

AMARE [12] = test: Pre-emergence herbicidal action against AMARE; type: in vivo, Amaranthus retroflexus; settings: Amaranthus retroflexus, 504 h, 100% = plants have died, 0% = like control plants
Procedure, shortened: as §1

AVEFA = test: Pre-emergence herbicidal action against AVEFA; type: in vivo, Avena fatua; settings: Avena fatua, 504 h, pre-emergence
Procedure, shortened: as §1

STEME [13] = test: Post-emergence herbicidal action against STEME; type: in vivo, Stellaria media; settings: Stellaria media, 504 h
Procedure, shortened: as §2

HORMU [14] = test: Pre-emergence herbicidal action against HORMU; type: in vivo, Hordeum murinum; settings: Hordeum murinum, 504 h, pre-emergence
Procedure, shortened: as §1

VIOTR [15] = test: Pre-emergence herbicidal action against VIOTR; type: in vivo, Viola tricolor; settings: Viola tricolor, 504 h
Procedure, shortened: as §1

HORMU [16] = test: Post-emergence herbicidal action against HORMU; type: in vivo, Hordeum murinum; settings: Hordeum murinum, 504 h
Procedure, shortened: as §2

VERPE = test: Post-emergence herbicidal action against VERPE; type: in vivo, Veronica persica; settings: Veronica persica, 504 h
Procedure, shortened: as §2

[17] = 80 g/ha, scored visually after 3 weeks vs untreated controls (100% = plants have died, 0% = like control plants)
[18] = 20 g/ha, scored visually after 3 weeks, 100% = plants have died, 0% = like control plants
[19] = 320 g/ha, scored visually after 3 weeks, 100% = plants have died, 0% = like control plants

CNC(=O)c1c(C(F)(F)F)ccc(C(=O)Nc2nnnn2C)c1Cl [Example 1-129]
pest or weed control at 80 g/ha (SETVI [1]; dosage 80 g/ha): 100% | pest or weed control at 320 g/ha (SETVI [1]; dosage 320 g/ha): 100% | pest or weed control at 5 g/ha (LOLRI [2]; dosage 5 g/ha): 80% | pest or weed control at 20 g/ha (LOLRI [2]; dosage 20 g/ha): 100% | pest or weed control at 80 g/ha (LOLRI [2]; dosage 80 g/ha): 100% | pest or weed control at 5 g/ha (VIOTR [3]; 5 g/ha): 80% | pest or weed control at 20 g/ha (VIOTR [3]; 20 g/ha): 100% | pest or weed control at 80 g/ha (VIOTR [3]; 80 g/ha): 100% | pest or weed control at 20 g/ha (MATIN; dosage 20 g/ha): 90% | pest or weed control at 80 g/ha (MATIN; dosage 80 g/ha): 100% | pest or weed control at 80 g/ha (POLCO; dosage 80 g/ha): 100% | pest or weed control at 320 g/ha (POLCO; dosage 320 g/ha): 100% | pest or weed control at 80 g/ha (ABUTH [4]; [17]): 100% | pest or weed control at 320 g/ha (ABUTH [4]; Dosage: 320 g/ha, scored visually after 3 weeks, 100% = plants have died, 0% = like control plants): 100% | pest or weed control at 20 g/ha (ABUTH [4]; dosage 20 g/ha, scored visually after 3 weeks vs untreated controls, 100% = plants have died, 0% = like control plants, read-out: Pre-emergence action against ABUTH (herbicidal activity in percent)): 100% | pest or weed control at 80 g/ha (ALOMY [5]; [17]): 100% | pest or weed control at 20 g/ha (ALOMY [5]; [18]): 90% | pest or weed control at 320 g/ha (ALOMY [5]; [19]): 100% | pest or weed control at 20 g/ha (AMARE [6]; 20 g/ha): 100% | pest or weed control at 80 g/ha (AMARE [6]; 80 g/ha): 100% | pest or weed control at 5 g/ha (PHBPU; dosage 5 g/ha): 80% | pest or weed control at 20 g/ha (PHBPU; dosage 20 g/ha): 100% | pest or weed control at 80 g/ha (PHBPU; dosage 80 g/ha): 100% | pest or weed control at 5 g/ha (ABUTH [7]; dosage 5 g/ha): 100% | pest or weed control at 20 g/ha (ABUTH [7]; dosage 20 g/ha): 100% | pest or weed control at 80 g/ha (ABUTH [7]; dosage 80 g/ha): 100% | pest or weed control at 80 g/ha (LOLRI [8]; 80 g/ha): 90% | pest or weed control at 320 g/ha (LOLRI [8]; 320 g/ha): 100% | pest or weed control at 20 g/ha (STEME [9]; dosage 20 g/ha): 100% | pest or weed control at 80 g/ha (STEME [9]; dosage 80 g/ha): 100% | pest or weed control at 320 g/ha (STEME [9]; dosage 320 g/ha): 100% | pest or weed control at 5 g/ha (ALOMY [10]; dosage 5 g/ha): 90% | pest or weed control at 20 g/ha (ALOMY [10]; dosage 20 g/ha): 100% | pest or weed control at 80 g/ha (ALOMY [10]; dosage 80 g/ha): 100% | pest or weed control at 5 g/ha (SETVI [11]; dosage 5 g/ha): 100% | pest or weed control at 20 g/ha (SETVI [11]; dosage 20 g/ha): 100% | pest or weed control at 80 g/ha (SETVI [11]; dosage 80 g/ha): 100% | pest or weed control at 20 g/ha (ECHCG; 20 g/ha): 80% | pest or weed control at 80 g/ha (ECHCG; 80 g/ha): 100% | pest or weed control at 320 g/ha (ECHCG; 320 g/ha): 100% | pest or weed control at 20 g/ha (AMARE [12]; 20 g/ha, scored visually after 3 weeks vs untreated controls): 100% | pest or weed control at 80 g/ha (AMARE [12]; 80 g/ha, scored visually after 3 weeks vs untreated controls): 100% | pest or weed control at 320 g/ha (AMARE [12]; 320 g/ha, scored visually after 3 weeks): 100% | pest or weed control at 80 g/ha (AVEFA; 80 g/ha): 100% | pest or weed control at 20 g/ha (AVEFA; [18]): 100% | pest or weed control at 320 g/ha (AVEFA; [19]): 100% | pest or weed control at 20 g/ha (STEME [13]; 20 g/ha): 100% | pest or weed control at 80 g/ha (STEME [13]; 80 g/ha): 100% | pest or weed control at 5 g/ha (STEME [13]; dosage 5 g/ha): 100% | pest or weed control at 80 g/ha (HORMU [14]; 80 g/ha): 90% | pest or weed control at 320 g/ha (HORMU [14]; 320 g/ha): 100% | pest or weed control at 20 g/ha (VIOTR [15]; dosage 20 g/ha): 100% | pest or weed control at 80 g/ha (VIOTR [15]; dosage 80 g/ha): 100% | pest or weed control at 320 g/ha (VIOTR [15]; dosage 320 g/ha): 100% | pest or weed control at 5 g/ha (HORMU [16]; dosage 5 g/ha): 90% | pest or weed control at 20 g/ha (HORMU [16]; dosage 20 g/ha): 100% | pest or weed control at 80 g/ha (HORMU [16]; dosage 80 g/ha): 100% | pest or weed control at 5 g/ha (VERPE; 5 g/ha): 80% | pest or weed control at 20 g/ha (VERPE; 20 g/ha): 80% | pest or weed control at 80 g/ha (VERPE; 80 g/ha): 100%
